Source: BindingDB's records for doi:10.1016/j.bmcl.2007.11.087 (Bristol-Myers Squibb, 2008)

Assay: Antagonist activity at human CCR3 receptor assessed as inhibition of chemotaxis in eosinophil

SMILES	IC50 [nM]
C[C@@H](NC(=O)Nc1cccc(-c2nnnn2C)c1)[C@@H](O)CN1CCC[C@@H](Cc2ccc(F)cc2)C1 [1-{(1R,2S)-3-[(S)-3-(4-Fluoro-benzyl)-piperidin-1-yl]-2-hydroxy-1-methyl-propyl}-3-[3-(1-methyl-1H-tetrazol-5-yl)-phenyl]-urea]	0.038
CCc1cc(NC(=O)N[C@H](C)[C@@H](O)CN(C)CCCc2ccc(F)cc2)cc(-c2nnnn2C)c1 [1-(3-ethyl-5-(1-methyl-1H-tetrazol-5-yl)phenyl)-3-((2R,3S)-4-((3-(4-fluorophenyl)propyl)(methyl)amino)-3-hydroxybutan-2-yl)urea]	2.6
CCc1cc(NC(=O)N[C@H](C)[C@@H](O)CN(CCCc2ccc(F)cc2)CC2CC2)cc(-c2nnnn2C)c1 [1-((2R,3S)-4-((cyclopropylmethyl)(3-(4-fluorophenyl)propyl)amino)-3-hydroxybutan-2-yl)-3-(3-ethyl-5-(1-methyl-1H-tetrazol-5-yl)phenyl)urea]	0.005
CCc1cc(NC(=O)N[C@H](C)[C@@H](O)CN(CC)CCCc2ccc(F)cc2)cc(-c2nnnn2C)c1 [1-((2R,3S)-4-(ethyl(3-(4-fluorophenyl)propyl)amino)-3-hydroxybutan-2-yl)-3-(3-ethyl-5-(1-methyl-1H-tetrazol-5-yl)phenyl)urea]	0.004
C[C@@H](NC(=O)Nc1cccc(-c2nnnn2C)c1)[C@@H](O)CN(C)[C@@H](C)[C@@H](O)c1ccccc1 [1-((2R,3S)-3-hydroxy-4-(((1S,2S)-1-hydroxy-1-phenylpropan-2-yl)(methyl)amino)butan-2-yl)-3-(3-(1-methyl-1H-tetrazol-5-yl)phenyl)urea]	22
